Laboratory results taken from patent publication US5025011A, “Fused pyridines active on the cardiovascular system” (SIMES, Societa Italiana Medicinali e Sintetici S.p.A., priority 1988, dated 1991).

Experiments:
[1] = test system: rabbit mesenteric artery; assay: Calcium antagonist activity: antagonizing the effect of Ca++ on preparations of rabbit mesenteric artery in Krebs depolarizer; format: cell-based; conditions: Oryctolagus cuniculus, Ca++ submaximal concentration 3 mM
Experimental: Calcium antagonist activity of the compounds of formula I has been tested as capability of antagonizing the effect of Ca^++ submaximal concentrations (3 mM) on preparations of rabbit mesenteric artery in Krebs depolarizer, prepared according to Towart "J. Cardiovasc. Pharmacol." 4, 895, (1982).

[2] = biological target: T1, mouse heart beta1 receptors (Mus musculus, UniProt P34971); assay: beta-blocking activity: binding test towards beta1 heart receptors in mouse
T1 construct: beta1 heart receptors; from tissue; host or cells: mouse heart
T1 sequence (P34971 whole entry): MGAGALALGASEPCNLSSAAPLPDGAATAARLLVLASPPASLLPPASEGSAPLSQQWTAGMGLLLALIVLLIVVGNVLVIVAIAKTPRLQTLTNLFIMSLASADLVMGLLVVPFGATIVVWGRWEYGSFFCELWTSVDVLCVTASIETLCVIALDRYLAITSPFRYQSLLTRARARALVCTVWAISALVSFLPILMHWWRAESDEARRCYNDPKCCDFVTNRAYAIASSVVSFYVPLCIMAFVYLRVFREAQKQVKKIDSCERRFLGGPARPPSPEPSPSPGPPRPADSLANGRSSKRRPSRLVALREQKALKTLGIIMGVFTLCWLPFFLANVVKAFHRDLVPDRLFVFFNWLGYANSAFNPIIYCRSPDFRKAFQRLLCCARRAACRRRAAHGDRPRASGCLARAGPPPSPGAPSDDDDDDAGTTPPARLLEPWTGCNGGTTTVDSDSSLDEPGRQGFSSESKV
From the text: (§1) Moreover the beta-blocking activity has been tested with i binding tests both towards beta1 heart receptors and beta2 lung receptors in mouse according to methods described in J. Biol. Chem., 253, 5090, (1978) and Br. J. Pharmacol., 68, 57, (1980).

[3] = biological target: T2, mouse lung beta2 receptors (Mus musculus, UniProt P18762); assay: beta-blocking activity: binding test towards beta2 lung receptors in mouse
T2 construct: beta2 lung receptors in mouse; from tissue; host or cells: mouse lung
T2 sequence (P18762 whole entry): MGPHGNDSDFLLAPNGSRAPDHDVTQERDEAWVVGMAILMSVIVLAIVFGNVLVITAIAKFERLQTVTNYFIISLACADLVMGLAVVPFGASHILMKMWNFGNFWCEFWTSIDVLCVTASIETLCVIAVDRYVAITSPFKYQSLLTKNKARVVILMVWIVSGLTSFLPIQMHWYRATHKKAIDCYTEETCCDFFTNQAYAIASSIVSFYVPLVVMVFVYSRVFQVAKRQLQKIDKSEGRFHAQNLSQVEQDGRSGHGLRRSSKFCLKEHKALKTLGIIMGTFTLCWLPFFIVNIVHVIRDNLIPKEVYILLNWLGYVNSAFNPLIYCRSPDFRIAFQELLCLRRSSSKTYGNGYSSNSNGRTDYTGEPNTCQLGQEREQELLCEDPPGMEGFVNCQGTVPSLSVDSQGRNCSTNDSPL
From the text: as §1

SMILES | IC50 [1] [nM] | Ki [2] [nM] | Ki [3] [nM]
CCOC(=O)C1=C(C)Nc2cnn(CCNCC(O)COc3ccccc3OC)c(=O)c2C1c1cccc([N+](=O)[O-])c1 (stereo not drawn) [Compound A, Ethyl 2-methyl-4-(3-nitrophenyl)-5-oxo-6-(2-(2-hydroxy-3-(2-methoxyphenoxy)-propylamino)-ethyl)-1,4,5,6-tetrahydro-pyrido(2,3-d)pyridaxine-3-carboxylate] | 240 | 345 | 287
CCOC(=O)C1=C(C)Nc2cnn(CC(C)(C)NCC(O)COc3ccccc3OC)c(=O)c2C1c1cccc([N+](=O)[O-])c1 (stereo not drawn) [Compound B] | 770 | 142 | 71
